In ChEMBL document CHEMBL1156813 (J Med Chem, 2010):
Converted amounts (≈) assume the structure as drawn.

What was measured:
[1] = biological target: Cannabinoid receptor 1 (Homo sapiens, UniProt P21554); test: biochemical; format: cell-based, CHO
[2] = physchem; conditions: phosphate buffered saline, pH 2
[3] = physchem; conditions: phosphate buffered saline, pH 7.4
[4] = biological target: Cannabinoid receptor 2 (Homo sapiens, UniProt P34972); test: biochemical
[5] = biological target: Acetylcholinesterase (Homo sapiens, UniProt P22303); test: biochemical
Chain of Acetylcholinesterase (P22303 whole entry): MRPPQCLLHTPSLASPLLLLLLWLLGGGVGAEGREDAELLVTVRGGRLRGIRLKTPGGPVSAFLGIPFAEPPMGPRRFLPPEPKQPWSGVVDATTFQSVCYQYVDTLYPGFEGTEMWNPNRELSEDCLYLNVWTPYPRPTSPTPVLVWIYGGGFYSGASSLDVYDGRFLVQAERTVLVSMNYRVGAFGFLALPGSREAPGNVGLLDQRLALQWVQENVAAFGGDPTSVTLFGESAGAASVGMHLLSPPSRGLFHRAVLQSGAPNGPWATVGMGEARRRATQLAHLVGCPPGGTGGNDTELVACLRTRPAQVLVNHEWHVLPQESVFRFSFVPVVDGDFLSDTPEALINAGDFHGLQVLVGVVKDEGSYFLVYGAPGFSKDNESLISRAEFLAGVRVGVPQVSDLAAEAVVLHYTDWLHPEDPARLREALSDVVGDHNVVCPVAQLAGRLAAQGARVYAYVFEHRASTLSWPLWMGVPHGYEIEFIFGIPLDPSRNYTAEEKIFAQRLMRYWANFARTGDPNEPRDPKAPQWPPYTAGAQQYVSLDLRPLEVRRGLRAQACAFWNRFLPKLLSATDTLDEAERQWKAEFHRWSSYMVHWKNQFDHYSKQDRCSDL
Description: Inhibition of human recombinant AChE expressed in HEK293 cells by photometry

Chain of Cannabinoid receptor 1 (P21554 whole entry): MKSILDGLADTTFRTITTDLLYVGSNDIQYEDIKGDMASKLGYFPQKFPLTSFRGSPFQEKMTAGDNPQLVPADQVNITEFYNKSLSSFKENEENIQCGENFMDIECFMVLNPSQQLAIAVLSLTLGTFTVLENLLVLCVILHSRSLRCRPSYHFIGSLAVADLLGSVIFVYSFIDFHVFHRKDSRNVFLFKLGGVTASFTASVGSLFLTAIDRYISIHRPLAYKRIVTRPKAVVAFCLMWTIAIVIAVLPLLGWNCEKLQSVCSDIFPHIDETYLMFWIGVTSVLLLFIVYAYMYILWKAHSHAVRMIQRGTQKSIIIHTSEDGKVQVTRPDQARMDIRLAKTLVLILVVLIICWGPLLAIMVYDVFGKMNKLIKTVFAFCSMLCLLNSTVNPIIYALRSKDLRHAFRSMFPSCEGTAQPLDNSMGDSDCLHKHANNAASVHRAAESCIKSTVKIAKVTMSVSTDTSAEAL
Chain of Cannabinoid receptor 2 (P34972 whole entry): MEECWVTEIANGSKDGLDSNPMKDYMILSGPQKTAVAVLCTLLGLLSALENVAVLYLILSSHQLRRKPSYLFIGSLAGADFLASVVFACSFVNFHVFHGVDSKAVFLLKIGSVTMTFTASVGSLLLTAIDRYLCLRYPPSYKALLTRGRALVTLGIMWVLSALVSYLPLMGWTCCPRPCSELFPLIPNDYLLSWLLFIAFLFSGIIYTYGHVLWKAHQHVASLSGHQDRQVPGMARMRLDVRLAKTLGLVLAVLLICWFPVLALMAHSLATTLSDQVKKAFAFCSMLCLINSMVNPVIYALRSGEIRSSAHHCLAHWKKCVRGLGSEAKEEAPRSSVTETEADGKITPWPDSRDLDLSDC

In the case of `CN1CCC(N/C(=N\S(=O)(=O)c2ccc(Cl)cc2)N2CC(c3ccccc3)C(c3ccc(Cl)cc3)=N2)CC1` (stereo unspecified), the Ki [1] is reported as 19 nM, the solubility kinetic [2] is reported as 65 µM (≈ 37.1 µg/mL) and the solubility kinetic [3] is reported as 11 µM (≈ 6.28 µg/mL). For the same molecule, the Ki [4] was over 1000 nM.

Molecule `CN(C)CCCN/C(=N\S(=O)(=O)c1ccc(Cl)cc1)N1CC(c2ccccc2)C(c2ccc(Cl)cc2)=N1.Cl` (stereo unspecified) has a Ki [1] of 3.1 nM, a solubility kinetic [2] of over 100 µM and a solubility kinetic [3] of 38 µM. For the same molecule, the Ki [4] was over 1000 nM.

With `CC(C)(O)CN=C(NS(=O)(=O)c1ccc(Cl)cc1)N1CC(c2ccccc2)C(c2ccc(Cl)cc2)=N1` (stereo unspecified) the Ki [1] was 43 nM, the solubility kinetic [2] was 4 µM (≈ 2.18 µg/mL) and the solubility kinetic [3] was 4 µM (≈ 2.18 µg/mL). For the same molecule, the Ki [4] was over 1000 nM.

For `CN(C)CCN1CCN(/C(=N\S(=O)(=O)c2ccc(Cl)cc2)N2CC(c3ccccc3)C(c3ccc(Cl)cc3)=N2)CC1` (stereo unspecified), the Ki [1] was 9.6 nM, the solubility kinetic [2] was 65 µM (≈ 39.9 µg/mL) and the solubility kinetic [3] was 4 µM (≈ 2.45 µg/mL). It also gave a Ki [4] of over 1000 nM.

For `O=S(=O)(/N=C(\NCCCCNc1c2c(nc3ccccc13)CCCC2)N1CC(c2ccccc2)C(c2ccc(Cl)cc2)=N1)c1ccc(Cl)cc1` (stereo unspecified), the Ki [1] was 42 nM and the Ki [4] was over 1000 nM.

With `O=S(=O)(N=C(NCCCCN1CCCC1)N1CC(c2ccccc2)C(c2ccc(Cl)cc2)=N1)c1ccc(Cl)cc1` (stereo unspecified) the Ki [1] was 27 nM, the solubility kinetic [2] was 38 µM (≈ 22.7 µg/mL) and the solubility kinetic [3] was 11 µM (≈ 6.58 µg/mL). It also gave a Ki [4] of over 1000 nM.

In the case of `CCc1c(C(=O)NN2CCCCC2)nc(-c2ccccc2Cl)n1-c1ccc(Cl)cc1`, the Ki [1] is reported as 14 nM, the Ki [4] is reported as over 1000 nM and the IC50 [5] is reported as over 31600 nM.

Work on `O=S1(=O)CCN(/C(=N\S(=O)(=O)c2ccc(Cl)cc2)N2CC(c3ccccc3)C(c3ccc(Cl)cc3)=N2)CC1` (stereo unspecified) yielded a Ki [1] of 31 nM, a solubility kinetic [2] of under 7 µM and a solubility kinetic [3] of under 3 µM. For the same molecule, the Ki [4] was 571 nM.

`CNC(=NS(=O)(=O)c1ccc(Cl)cc1)N1CC(c2ccccc2)C(c2ccc(Cl)cc2)=N1` (stereo not drawn) [RAC-IBIPINABANT] showed a solubility kinetic [2] of 4 µM (≈ 1.95 µg/mL) and a solubility kinetic [3] of 2 µM (≈ 0.975 µg/mL).
